Test results taken from patent publication US20100021918A1, “METHOD FOR ASSAYING ACTION OF ANTITUMOR AGENT USING SPLICING DEFECTS AS INDEX” (Eisai R&D Management Co., Ltd., priority 2007, published 2010).

Tested on: peripheral blood mononuclear cells (PBMC)
Assay: Microarray analysis (3), dose-dependent intron expression in PBMC at 3, 10, 30 nM, Table 5
Assay type: cell-based, human
Method: PBMC was suspended in RPMI1640 medium (containing 10% FBS, penicillin, and streptomycin) to 5×10^6 cells/ml and 1 ml of the suspension was plated per well of a 24-well plate. Immediately, 111 μl of 10 times-concentrated (8E,12E,14E)-7-((4-cycloheptylpiperazin-1-yl)carbonyl)oxy-3,6,16,21-tetrahydroxy-6,10,12,16,20-pentamethyl-18,19-epoxytricosa-8,12,14-trien-11-olide was added to the well (six wells per each concentration tested). The cells were then cultured in an incubator with 5% carbon dioxide gas at 37° C. Three hours later, the supernatant was collected and centrifuged at 1500 rpm for five minutes. TRI reagent (SIGMA) (1 ml) was added to each well of the plate from which the supernatant was removed to harvest the cells, which was added to the centrifuged pellet to dissolve. RNA was purified in accordance with the protocol of TRI reagent. RNA was further purified using RNeasy (QIAGEN) and, in accordance with the protocol, DNaseI was added to the samples during the procedure. Absorbance at 260 nm was measured to quantify an amount of RNA.
Ribosomal RNA was removed from 1 μg of each total RNA of control cells (n=3) and cells with the treatment (n=3) using RiboMinus Human/Mouse Transcriptome Isolation Kit (Invitrogen). Single stranded cDNA synthesis, double stranded cDNA synthesis, cRNA synthesis, second single stranded cDNA synthesis, cDNA fragmentation, and cDNA labeling in order were carried out for total RNA from which ribosomal RNA was removed, using GeneChip Whole Transcript Sense Target Labeling and Control Reagents (Affymetrix) to make a cDNA probe. Subsequently, the cDNA probe was used for hybridization with Human Exon 1.0 ST Array (Affymetrix). The array was washed and stained, and luminescence intensity was measured by a scanner.
The expression level of the probe set and the gene was quantified by using Expression Console Ver. 1.0 (Affymetrix) with Summarization Method and Normalization Method being set to “Median polish as used in RMA” and “None”, respectively. The expression level of the probe was normalized with that of the gene.
Probe sets showing that the normalized change in the level expression of the probe set in the group with the treatment at 30 nM was more than 5 times; the expression level of the probe set and the gene in the group with the treatment at 30 nM was more than 100; and probe set annotation was “extended, full, free”, were picked out. Regression analysis was performed with the probe sets extracted for the control group, the group with the treatment at 3 nM, the group with the treatment at 10 nM, and the group with the treatment at 30 nM to determine a p and q value for the slope of regression formula. A gene containing the probe sets with the q value of less than 5% was determined as a candidate gene with increased expression level of the intron regions (Table 5).
In Table 5, for the gene evaluated, gene name (Gene Name), abbreviated name (Gene Symbol), accession number (Accession), alias name (Synonym), transcription cluster number in Human Exon 1.0 ST Array (Human Exon 1.0 ST Array Transcription Cluster ID), chromosome number (Chromosome), type of strand (Strand), start region (Start), stop region (Stop), and change in expression level per 1 nM (Fold Change/nM) were respectively shown.

Measured: Fold Change/nM

CCC(O)C(C)C1OC1CC(C)(O)/C=C/C=C(\C)C1OC(=O)CC(O)CCC(C)(O)C(OC(=O)N2CCN(C3CCCCCC3)CC2)/C=C/C1C (stereo not shown) [E7107, (8E,12E,14E)-7-((4-cycloheptylpiperazin-1-yl)carbonyl)oxy-3,6,16,21-tetrahydroxy-6,10,12,16,20-pentamethyl-18,19-epoxytricosa-8,12,14-trien-11-olide]
1.05 nM⁻¹: gene ABCC1, intron expression, 3, 10, 30 nM | gene ADAR introns, regression over control, 3, 10, 30 nM | gene AMPD3 // PPARA // TRMU // GTSE1, intron expression, 3, 10, 30 nM | gene ANKH introns, regression over control, 3, 10, 30 nM | gene ARF1 introns, regression over control, 3, 10, 30 nM | gene ARHGDIB introns, regression over control, 3, 10, 30 nM | gene ATP8A1 // PCLKC, intron expression, 3, 10, 30 nM | gene AUTS2, intron expression, 3, 10, 30 nM | gene BAT2D1, intron expression, 3, 10, 30 nM | gene BCL9L, intron expression, 3, 10, 30 nM | gene C3orf63, intron expression, 3, 10, 30 nM | gene C13orf18, intron expression, 3, 10, 30 nM | gene C22orf28, intron expression, 3, 10, 30 nM | gene CALR, intron expression, 3, 10, 30 nM | gene CAND1 introns, regression over control, 3, 10, 30 nM | gene CCND2 introns, regression over control, 3, 10, 30 nM | gene CDC2L5, intron expression, 3, 10, 30 nM | gene CEP170 // CEP170L, intron expression, 3, 10, 30 nM | gene CHST11, intron expression, 3, 10, 30 nM | gene DDEF1, intron expression, 3, 10, 30 nM | gene DDX3Y introns, regression over control, 3, 10, 30 nM | gene DDX18 // WNT8B, intron expression, 3, 10, 30 nM | gene DENND4A introns, regression over control, 3, 10, 30 nM | gene DPF2, intron expression, 3, 10, 30 nM | gene DRAM, intron expression, 3, 10, 30 nM | gene DUSP16, intron expression, 3, 10, 30 nM | gene EDD1, intron expression, 3, 10, 30 nM | gene EIF3S10, intron expression, 3, 10, 30 nM | gene EIF4A1 // SENP3, intron expression, 3, 10, 30 nM | gene FBXO11, intron expression, 3, 10, 30 nM | gene FNTA, intron expression, 3, 10, 30 nM | gene FOXK2, intron expression, 3, 10, 30 nM | gene FOXO3A, intron expression, 3, 10, 30 nM | gene GAK, intron expression, 3, 10, 30 nM | gene GDI1 introns, regression over control, 3, 10, 30 nM | gene GNA12, intron expression, 3, 10, 30 nM | gene GP5 // ZNF394, intron expression, 3, 10, 30 nM | gene GTF3C4 introns, regression over control, 3, 10, 30 nM | gene GTPBP4, intron expression, 3, 10, 30 nM | gene IDI1 introns, regression over control, 3, 10, 30 nM | gene IFNGR1 introns, regression over control, 3, 10, 30 nM | gene KIAA0226 introns, regression over control, 3, 10, 30 nM | gene KLF9 introns, regression over control, 3, 10, 30 nM | gene LDLR introns, regression over control, 3, 10, 30 nM | gene MAPK6, intron expression, 3, 10, 30 nM | gene MKI67IP introns, regression over control, 3, 10, 30 nM | gene MLL3 // ADAMTS2 // LRRK1 // BAGE3 introns, regression over control, 3, 10, 30 nM | gene MLLT3, intron expression, 3, 10, 30 nM | gene MTMR6 introns, regression over control, 3, 10, 30 nM | gene MYD88, intron expression, 3, 10, 30 nM | gene NFKB2, intron expression, 3, 10, 30 nM | gene NIPBL // NRBP1 introns, regression over control, 3, 10, 30 nM | gene NPAT, intron expression, 3, 10, 30 nM | gene NR3C1, intron expression, 3, 10, 30 nM | gene PAK2, intron expression, 3, 10, 30 nM | gene PJA2 introns, regression over control, 3, 10, 30 nM | gene PLEK, intron expression, 3, 10, 30 nM | gene PLEKHM1, intron expression, 3, 10, 30 nM | gene POLR3E introns, regression over control, 3, 10, 30 nM | gene PPP1CB, intron expression, 3, 10, 30 nM | gene PRKAR1A, intron expression, 3, 10, 30 nM | gene PRPF4B, intron expression, 3, 10, 30 nM | gene PSEN1, intron expression, 3, 10, 30 nM | gene PSMD11, intron expression, 3, 10, 30 nM | gene RANGAP1, intron expression, 3, 10, 30 nM | gene RARA, intron expression, 3, 10, 30 nM | gene RBM23 // C9orf102, intron expression, 3, 10, 30 nM | gene SETD5, intron expression, 3, 10, 30 nM | gene SF3B1, intron expression, 3, 10, 30 nM | gene SF3B2, intron expression, 3, 10, 30 nM | gene SFPQ, intron expression, 3, 10, 30 nM | gene SFRS2IP introns, regression over control, 3, 10, 30 nM | gene SFRS3, intron expression, 3, 10, 30 nM | gene SLFN11, intron expression, 3, 10, 30 nM | gene ST8SIA4 introns, regression over control, 3, 10, 30 nM | gene STX6, intron expression, 3, 10, 30 nM | gene SUPV3L1 introns, regression over control, 3, 10, 30 nM | gene THRAP1 introns, regression over control, 3, 10, 30 nM | gene TLR4, intron expression, 3, 10, 30 nM | gene TMEM1, intron expression, 3, 10, 30 nM | gene TMEM2, intron expression, 3, 10, 30 nM | gene TNFSF8, intron expression, 3, 10, 30 nM | gene TRAF3 introns, regression over control, 3, 10, 30 nM | gene UBXD2 introns, regression over control, 3, 10, 30 nM | gene USP4, intron expression, 3, 10, 30 nM | gene USP38, intron expression, 3, 10, 30 nM | gene USP47 introns, regression over control, 3, 10, 30 nM | gene YME1L1, intron expression, 3, 10, 30 nM | gene ZNF267, intron expression, 3, 10, 30 nM
1.08 nM⁻¹: introns of gene ITGAV, regression over control, 3, 10, 30 nM
1.07 nM⁻¹: introns of gene ACSL1, regression over control, 3, 10, 30 nM | introns of gene BASP1, regression over control, 3, 10, 30 nM | introns of gene CD2, regression over control, 3, 10, 30 nM | introns of gene EIF2C2, regression over control, 3, 10, 30 nM | introns of gene GCH1, regression over control, 3, 10, 30 nM | introns of gene NFKB1, regression over control, 3, 10, 30 nM | introns of gene NUMB, regression over control, 3, 10, 30 nM | introns of gene PRKCE, regression over control, 3, 10, 30 nM | introns of gene PSMD3, regression over control, 3, 10, 30 nM | introns of gene QKI, regression over control, 3, 10, 30 nM
